The test system of the experiment is Adult Boophilus microplus. Nature of the experiment: Topical application test on fully engorged adult Boophilus microplus ticks; overall reduction in anticipated reproduction (eggs laid and hatching). It counts as in vivo. Conditions: Rhipicephalus microplus, read-out: In Vitro Activity (topical application) vs. Adult Boophilus microplus % Effect; for inhibition at 0.5 µg/tick: 0.5 μg/tick; for inhibition at 1 µg/tick: 1 μg/tick; for inhibition at 2 µg/tick: 2 μg/tick; for inhibition at 4 µg/tick: 4 μg/tick; for inhibition at 8 µg/tick: 8 μg/tick; for inhibition at 10 µg/tick: 10 μg/tick. The protocol: In one test, five freshly collected, fully engorged Boophilus microplus adult ticks are used for each acaricidal compound. Using a micro-pipette, 10 micro-liters of a solution containing 10 micro-grams of the acaricidal compound in ethanol or acetone, is applied to the dorsal surface of each of the ticks. The treated ticks are placed in weighted 1"×2" glass vials, weighted and stored at 26° C. and 80% relative humidity in plastic boxes for two weeks. The ticks are then removed from the vials and the vials weighted to give the weight of eggs laid by the ticks. Any reduction in the egg laying of the treated ticks is caculated as a percentage of the eggs laid by untreated control ticks.
The eggs are returned to the incubator for a further 3 weeks after which time the percentage of eggs hatching is estimated.
The percentage effect is calculated as the overall reduction in the anticipated reproduction of the ticks using the weight of eggs laid and the percentage of eggs hatching.
The test may be repeated using smaller amounts of the acaricidal compound for sufficiently active compounds.
The activity of many of the compounds of the Examples detailed hereinafter against the tick Boophilus microplus has been determined.

The structures appear in SMILES notation.

As to `CCCCCCCCCCCCCCCC[N+]1=C2SC(C)=C(CC)N2CCC1` [Example 1, 8-cetyl-3-ethyl-2-methyl-6,7-dihydro[5H]thiazolo[3,2-a]pyrimidinium bromide], the inhibition at 0.5 µg/tick amounted to 24%, the inhibition at 1 µg/tick came out at 59%, the inhibition at 2 µg/tick came out at 99% and the inhibition at 4 µg/tick was determined as 100%. The inhibition at 8 µg/tick was 100% and the inhibition at 10 µg/tick was determined as 100%.

`CCCCCCCCCCCCCCC[N+]1=C2SC=C(c3ccccc3)N2CCC1` [Example 2]: the inhibition at 1 µg/tick came out at 16%, the inhibition at 2 µg/tick came out at 67%, the inhibition at 4 µg/tick was 77% and the inhibition at 8 µg/tick is 100%. The inhibition at 10 µg/tick was 100%.

For `CCCCCCCCCCCCCCCC[N+]1=C2SC=C(c3ccccc3)N2CCC1` [Example 3], the inhibition at 0.5 µg/tick was determined as 2%, the inhibition at 1 µg/tick was 13%, the inhibition at 2 µg/tick was 26% and the inhibition at 4 µg/tick amounted to 90%. Further, the inhibition at 8 µg/tick was 97% and the inhibition at 10 µg/tick was 100%.

On to `CCCCCCCCCCCCCC[N+]1=C2SC(C)=C(CC)N2CCC1` [Example 4], for which the inhibition at 2 µg/tick was 12%, the inhibition at 4 µg/tick was determined as 75%, the inhibition at 8 µg/tick was determined as 100% and the inhibition at 10 µg/tick amounted to 83%.

`CCCCCCCCCCCCCC[N+]1=C2SC=C(C)N2CCC1` [Example 5]: the inhibition at 1 µg/tick came to 0%, the inhibition at 2 µg/tick amounted to 4%, the inhibition at 4 µg/tick was 32% and the inhibition at 8 µg/tick amounted to 63%. The inhibition at 10 µg/tick came out at 65%.

As for `CCCCCCCCCCCCCCCCC[N+]1=C2SC=C(c3ccccc3)N2CCC1` [Example 6], the inhibition at 1 µg/tick came to 7%, the inhibition at 2 µg/tick amounted to 43%, the inhibition at 4 µg/tick was 79% and the inhibition at 8 µg/tick is 98%. Also, the inhibition at 10 µg/tick stood at 100%.

As to `CCCCCCCCCCCCCCCC[N+]1=C2SC(C)=C(c3ccccc3)N2CCC1` [Example 7, 8-cetyl, 2-methyl-3-phenyl-6,7-dihydro[5H]thiazolo[3,2-a]pyrimidinium bromide], the inhibition at 0.5 µg/tick came to 31%, the inhibition at 1 µg/tick amounted to 54%, the inhibition at 2 µg/tick was determined as 92% and the inhibition at 4 µg/tick was found to be 99%. For the same compound, the inhibition at 8 µg/tick came to 100% and the inhibition at 10 µg/tick came out at 100%.

With `CCCCCCCCCCCCCCCCCC[N+]1=C2SC=C(C)N2CCC1` [Example 8], the inhibition at 10 µg/tick stood at 26%.

Consider `CCCCCCCCCCCCCCCCC[N+]1=C2SC=C(C)N2CCC1` [Example 9], for which the inhibition at 10 µg/tick worked out at 42%.

On to `CCCCCCCCCCCCCCC[N+]1=C2SC=C(C)N2CCC1` [Example 10], for which the inhibition at 10 µg/tick amounted to 72%.

On to `CCCCCCCCCCCCCCC[N+]1=C2SC(C)=C(c3ccccc3)N2CCC1` [Example 11], for which the inhibition at 0.5 µg/tick was 30%, the inhibition at 1 µg/tick turned out to be 36%, the inhibition at 2 µg/tick is 73% and the inhibition at 4 µg/tick was 100%. In addition, the inhibition at 8 µg/tick came to 100% and the inhibition at 10 µg/tick came out at 100%.

As for `CCCCCCCCCCCCCCCCCC[N+]1=C2SC(C)=C(c3ccccc3)N2CCC1` [Example 12], the inhibition at 0.5 µg/tick came to 16%, the inhibition at 1 µg/tick was found to be 19%, the inhibition at 2 µg/tick amounted to 22% and the inhibition at 4 µg/tick was 38%. For the same compound, the inhibition at 8 µg/tick is 87% and the inhibition at 10 µg/tick was found to be 100%.

Take `CCCCCCCCCCCCCC[N+]1=C2SC(C)=C(c3ccccc3)N2CCC1` [Example 13]: the inhibition at 0.5 µg/tick worked out at 0%, the inhibition at 1 µg/tick worked out at 6%, the inhibition at 2 µg/tick turned out to be 21% and the inhibition at 4 µg/tick came to 99.4%. Also, the inhibition at 8 µg/tick was 99.9% and the inhibition at 10 µg/tick was found to be 100%.

Regarding `CCCCCCCCCCCCCCCCCC[N+]1=C2SC=C(c3ccccc3)N2CCC1` [Example 14], the inhibition at 10 µg/tick was determined as 47%.

As to `CCCCCCCCCCCCCCCCC[N+]1=C2SC(C)=C(c3ccccc3)N2CCC1` [Example 15], the inhibition at 0.5 µg/tick is 11%, the inhibition at 1 µg/tick came to 9%, the inhibition at 2 µg/tick came out at 29% and the inhibition at 4 µg/tick was 99.9%. Also, the inhibition at 8 µg/tick came out at 100% and the inhibition at 10 µg/tick turned out to be 100%.

As to `CCCCCCCCCCCCCCCC[N+]1=C2SC(c3ccccc3)=CN2CCC1` [Example 16], the inhibition at 10 µg/tick worked out at 33%.

With `CCCCCCCCCCCCCCCC[N+]1=C2SC=C(C)N2CCC1` [Example 19], the inhibition at 2 µg/tick worked out at 0%, the inhibition at 4 µg/tick came to 9%, the inhibition at 8 µg/tick was 28% and the inhibition at 10 µg/tick worked out at 49%.

As to `CCCCCCCCCCCCCCCC[N+]1=C2SC=C(C)N2CCCC1` [Example 20, 9-cetyl-3-methyl-5,6,7,8-tetrahydro-thiazolo[3,2-a][1,3]diazepinium bromide], the inhibition at 0.5 µg/tick was found to be 0%, the inhibition at 1 µg/tick came out at 29%, the inhibition at 2 µg/tick is 67% and the inhibition at 4 µg/tick was found to be 99%. In addition, the inhibition at 8 µg/tick stood at 100% and the inhibition at 10 µg/tick was determined as 100%.

Turning to `CCCCCCCCCCCCCCCC[N+]1=C2SC=C(c3ccccc3)N2CCCC1` [Example 21], the inhibition at 1 µg/tick stood at 0%, the inhibition at 2 µg/tick came to 83%, the inhibition at 4 µg/tick is 98% and the inhibition at 8 µg/tick came to 100%. Further, the inhibition at 10 µg/tick was 100%.

Consider `CCCCCCCCCCCCCCCCCC[N+]1=C2SC=C(c3ccccc3)N2CCCC1` [Example 22], for which the inhibition at 10 µg/tick worked out at 57%.

As for `CCCCCCCCCCCCCCCC[N+]1=C2SC(C)=C(c3ccccc3)N2CCCC1` [Example 23, 9-hexadecyl-2-methyl-3-phenyl-5,6,7,8-tetrahydro-thiazolo[3,2-a][1,3]diazepinium bromide], the inhibition at 0.5 µg/tick amounted to 6%, the inhibition at 1 µg/tick stood at 60%, the inhibition at 2 µg/tick turned out to be 98% and the inhibition at 4 µg/tick turned out to be 100%. Moreover, the inhibition at 8 µg/tick turned out to be 100% and the inhibition at 10 µg/tick was 100%.

For `CCCCCCCCCCCCCCC[N+]1=C2SC=C(C)N2CCCC1` [Example 24], the inhibition at 0.5 µg/tick stood at 13%, the inhibition at 1 µg/tick is 48%, the inhibition at 2 µg/tick is 70% and the inhibition at 4 µg/tick was 97%. Also, the inhibition at 8 µg/tick was determined as 100% and the inhibition at 10 µg/tick worked out at 100%.

On to `CCCCCCCCCCCCCCCCCC[N+]1=C2SC=C(C)N2CCCC1` [Example 25], for which the inhibition at 1 µg/tick was found to be 20%, the inhibition at 2 µg/tick amounted to 40%, the inhibition at 4 µg/tick is 82% and the inhibition at 8 µg/tick was 78%. Moreover, the inhibition at 10 µg/tick was 98%.

Consider `CCCCCCCCCCCCCCC[N+]1=C2SC=C(c3ccccc3)N2CCCC1` [Example 26, 9-Pentadecyl-3-phenyl-5,6,7,8-tetrahydrothiazolo[3,2-a][1,3]diazepinium bromide], for which the inhibition at 0.5 µg/tick stood at 14%, the inhibition at 1 µg/tick stood at 12%, the inhibition at 2 µg/tick worked out at 43% and the inhibition at 4 µg/tick was 61%. The inhibition at 8 µg/tick came to 92% and the inhibition at 10 µg/tick amounted to 99%.

Take `CCCCCCCCCCCCC[N+]1=C2SC=C(C)N2CCCC1` [Example 27]: the inhibition at 0.5 µg/tick stood at 40%, the inhibition at 1 µg/tick is 38%, the inhibition at 2 µg/tick is 55% and the inhibition at 4 µg/tick worked out at 63%. For the same compound, the inhibition at 8 µg/tick is 75% and the inhibition at 10 µg/tick is 86%.

For `CCCCCCCCCCCCCC[N+]1=C2SC=C(C)N2CCCC1` [Example 28], the inhibition at 1 µg/tick was found to be 13%, the inhibition at 2 µg/tick is 52%, the inhibition at 4 µg/tick is 74% and the inhibition at 8 µg/tick was found to be 83%. Further, the inhibition at 10 µg/tick stood at 100%.

With `CCCCCCCCCCCCCC[N+]1=C2SC=C(c3ccccc3)N2CCCC1` [Example 29], the inhibition at 1 µg/tick was 19%, the inhibition at 2 µg/tick was 11%, the inhibition at 4 µg/tick was 55% and the inhibition at 8 µg/tick stood at 100%. The inhibition at 10 µg/tick was 100%.

In the case of `CCCCCCCCCCCCCCCCC[N+]1=C2SC=C(C)N2CCCC1` [Example 30], the inhibition at 1 µg/tick was found to be 13%, the inhibition at 2 µg/tick worked out at 47%, the inhibition at 4 µg/tick stood at 56% and the inhibition at 8 µg/tick turned out to be 95%. The inhibition at 10 µg/tick was found to be 100%.

Regarding `CCCCCCCCCCCCC[N+]1=C2SC=C(c3ccccc3)N2CCCC1` [Example 31], the inhibition at 4 µg/tick worked out at 0%, the inhibition at 8 µg/tick came to 52% and the inhibition at 10 µg/tick was 100%.

Values taken from patent publication US4162253A, “Acaricidal agents” (Pfizer Inc., priority 1975, dated 1979).
